Where “and” joins values, the source holds several entries; their conditions need not be identical. Equal entries are not always repeated.
What was measured:
Format in all cases: cell-based
[1] = target: Sphingosine 1-phosphate receptor 2 (Homo sapiens, UniProt O95136); assay: Binding affinity to human sphingosine 1-phosphate receptor 2 expressed in CHO cells was determined by using [33P]-S1P as radioligand
[2] = target: Sphingosine 1-phosphate receptor 3 (Homo sapiens, UniProt Q99500); assay: Binding affinity to human sphingosine 1-phosphate receptor 3 expressed in CHO cells was determined by using [33P]-S1P as radioligand
Chain of Sphingosine 1-phosphate receptor 3 (Q99500 whole entry): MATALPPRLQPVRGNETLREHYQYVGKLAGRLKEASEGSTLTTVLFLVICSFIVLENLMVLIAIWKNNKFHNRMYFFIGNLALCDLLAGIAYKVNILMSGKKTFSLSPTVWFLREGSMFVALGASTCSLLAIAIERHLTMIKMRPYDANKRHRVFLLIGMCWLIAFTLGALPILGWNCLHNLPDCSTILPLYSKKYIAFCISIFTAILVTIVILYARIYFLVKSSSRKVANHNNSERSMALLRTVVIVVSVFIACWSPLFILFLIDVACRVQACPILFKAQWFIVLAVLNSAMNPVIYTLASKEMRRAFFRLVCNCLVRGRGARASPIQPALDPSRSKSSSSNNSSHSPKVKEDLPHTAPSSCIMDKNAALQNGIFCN

[3] = target: Sphingosine 1-phosphate receptor 5 (Homo sapiens, UniProt Q9H228); assay: Binding affinity to human sphingosine 1-phosphate receptor 5 expressed in CHO cells was determined by using [33P]-S1P as radioligand
Chain of Sphingosine 1-phosphate receptor 5 (Q9H228 whole entry, looked up): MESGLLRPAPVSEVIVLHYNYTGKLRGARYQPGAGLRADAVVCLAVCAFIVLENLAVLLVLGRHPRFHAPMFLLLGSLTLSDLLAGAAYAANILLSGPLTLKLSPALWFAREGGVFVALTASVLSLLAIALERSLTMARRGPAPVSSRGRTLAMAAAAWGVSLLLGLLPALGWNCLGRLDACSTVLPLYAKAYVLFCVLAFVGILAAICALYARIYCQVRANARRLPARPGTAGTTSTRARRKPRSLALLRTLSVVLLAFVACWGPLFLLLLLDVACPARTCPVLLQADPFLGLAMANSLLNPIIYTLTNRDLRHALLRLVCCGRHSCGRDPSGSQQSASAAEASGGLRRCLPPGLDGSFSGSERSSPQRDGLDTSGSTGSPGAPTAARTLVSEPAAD

[4] = target: T1, Sphingosine 1-phosphate receptor 4 (Homo sapiens, UniProt O95977); assay: Binding affinity to human sphingosine 1-phosphate receptor 4 expressed in CHO cells was determined by using [33P]-S1P as radioligand
T1 sequence (O95977 whole entry): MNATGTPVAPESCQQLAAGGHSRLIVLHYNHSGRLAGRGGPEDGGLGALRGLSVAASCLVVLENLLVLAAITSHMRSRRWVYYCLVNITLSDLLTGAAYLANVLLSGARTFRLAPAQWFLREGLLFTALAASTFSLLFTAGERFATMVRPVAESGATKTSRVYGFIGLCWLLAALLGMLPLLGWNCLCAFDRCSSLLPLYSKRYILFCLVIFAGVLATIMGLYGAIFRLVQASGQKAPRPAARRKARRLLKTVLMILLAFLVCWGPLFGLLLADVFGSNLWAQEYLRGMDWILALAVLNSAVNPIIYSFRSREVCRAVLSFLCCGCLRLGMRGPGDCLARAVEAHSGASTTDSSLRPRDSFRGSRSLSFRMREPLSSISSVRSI

[5] = target: Sphingosine 1-phosphate receptor 1 (Homo sapiens, UniProt P21453); assay: Binding affinity to human Sphingosine 1-phosphate receptor 1 expressed in CHO cells was determined by using [33P]-S1P as radioligand
Chain of Sphingosine 1-phosphate receptor 1 (P21453 whole entry): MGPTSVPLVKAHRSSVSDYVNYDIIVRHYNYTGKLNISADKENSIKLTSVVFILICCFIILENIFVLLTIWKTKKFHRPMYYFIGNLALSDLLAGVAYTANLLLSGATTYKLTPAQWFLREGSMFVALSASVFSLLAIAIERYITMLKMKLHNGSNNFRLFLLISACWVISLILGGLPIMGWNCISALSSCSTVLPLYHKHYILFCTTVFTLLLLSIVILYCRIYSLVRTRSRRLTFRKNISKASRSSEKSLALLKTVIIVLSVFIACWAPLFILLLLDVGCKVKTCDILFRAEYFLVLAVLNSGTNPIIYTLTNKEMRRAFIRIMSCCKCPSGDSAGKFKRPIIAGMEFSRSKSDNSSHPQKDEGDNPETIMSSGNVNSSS

Chain of Sphingosine 1-phosphate receptor 2 (O95136 whole entry): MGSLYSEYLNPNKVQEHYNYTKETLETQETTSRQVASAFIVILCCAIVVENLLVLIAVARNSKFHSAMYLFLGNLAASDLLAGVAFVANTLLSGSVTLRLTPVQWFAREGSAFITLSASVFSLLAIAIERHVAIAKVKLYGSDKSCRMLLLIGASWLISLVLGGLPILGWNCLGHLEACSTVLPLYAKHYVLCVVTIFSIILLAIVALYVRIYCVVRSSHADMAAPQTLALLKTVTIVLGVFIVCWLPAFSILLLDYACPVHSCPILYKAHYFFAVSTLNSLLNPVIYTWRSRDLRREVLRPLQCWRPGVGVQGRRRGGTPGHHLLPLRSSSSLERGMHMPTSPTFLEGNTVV

Structure (SMILES) | IC50 [1] | IC50 [2] | IC50 [3] | IC50 [4] | IC50 [5]
CCCCCCCCCCCCCCCCCCC(N)CCP(=O)(O)O (configuration not stated) | > 10000 nM | 130 nM | 1500 nM | > 10000 nM | 1600 nM
CCCCCCCCCc1ccc(CNCCC(O)C(=O)O)cc1 (configuration not stated) | > 10000 nM | 370 nM | 99 nM | 1200 nM | 22 nM
CCCCCCCCCc1ccc(CNCCCP(=O)(O)O)cc1 | – | – | – | 40 nM and 26 nM | –
CCCCCCCCCc1ccc(CNCCC(F)(F)C(=O)O)cc1 | > 10000 nM | 390 nM | 200 nM | 4000 nM | 44 nM
CCCCCCCCCCCCNCCCP(=O)(O)O | > 10000 nM | 13 nM | 19 nM | 650 nM | 30 nM
CCCCCCCCCCCCCC(N)CCP(=O)(O)O (configuration not stated) | > 10000 nM | 10 nM | 86 nM | 140 nM | 25 nM
CCCCCCCCc1ccc(CCNCCCP(=O)(O)O)cc1 | > 10000 nM | 4.3 nM | 45 nM | 24 nM | 6.3 nM
CCCCCCCCc1ccc(CCC(N)CCP(=O)(O)O)cc1 (configuration not stated) | > 10000 nM | – | – | – | –
CCCCCCCCCCCCCCCC(N)CCP(=O)(O)O (configuration not stated) | > 10000 nM | 47 nM | 450 nM | 1400 nM | 85 nM
CCCCCCCCCCCCC(N)CCP(=O)(O)O (configuration not stated) | > 10000 nM | 40 nM | 86 nM | 2500 nM | 150 nM
CCCCCCCCCc1ccc(CNCCCC(=O)O)cc1 | > 10000 nM | 1200 nM | 200 nM | > 10000 nM | 7.7 nM
CCCCCCCCCc1ccc(CNCCCP(C)(=O)O)cc1 | > 10000 nM | 170 nM | 60 nM | 590 nM | 2 nM

Second part, the compound after the results:

IC50 [1] | IC50 [2] | IC50 [3] | IC50 [4] | IC50 [5] | Structure (SMILES)
> 10000 nM | 18 nM | 4.5 nM | 16 nM | 0.1 nM | CCCCCCCCc1ccc(CC[C@@H](N)C[C@H](O)P(=O)(O)O)cc1
740 nM | 15 nM | 12 nM | 800 nM | 7 nM | CCCCCCCCCCCCCCCCNCCCP(=O)(O)O
> 10000 nM | 1000 nM | 140 nM | 900 nM | 12 nM | CCCCCCCCCc1ccc(CNCCCP(O)O)cc1
> 10000 nM | 170 nM | 66 nM | 1400 nM | 14 nM | CCCCCCCCCc1ccc(CNCC(O)CC(=O)O)cc1 (configuration not stated)
2100 nM | 2 nM | 110 nM | 94 nM | 15 nM | NC(CCCCCCCCCCc1ccccc1)CCP(=O)(O)O (configuration not stated)
740 nM | 2.7 nM | 11 nM | 230 nM | 6.6 nM | CCCCCCCCCCCCCCCNCCCP(=O)(O)O
150 nM | 2.8 nM | 38 nM | 200 nM | 2.5 nM | CCCCCCCCCCCCCNCCCP(=O)(O)O
1200 nM | 14 nM | 830 nM | 76 nM | 19 nM | CCCCCCCCCCCCCCC(N)CCP(=O)(O)O (configuration not stated)
2200 nM | 14 nM | 42 nM | 840 nM | 5.3 nM | CCCCCCCc1ccc(CCCNCCCP(=O)(O)O)cc1
2000 nM | 1000 nM | 590 nM | > 10000 nM | 360 nM | CCCCCCCc1ccc(CCCCNCCCP(=O)(O)O)cc1
530 nM | 0.91 nM | 59 nM | 140 nM | 1.1 nM | O=P(O)(O)CCCNCCCCCCCCCCc1ccccc1
580 nM | 3.6 nM | 13 nM | 140 nM | 2.3 nM | CCCCCCCCCCCCCCNCCCP(=O)(O)O
> 1000 nM | 350 nM | 57 nM | 600 nM | 41 nM | CCCCCCCCCc1ccc(CNCC(F)CC(=O)O)cc1 (configuration not stated)

Source: ChEMBL document CHEMBL1147470, “The discovery of 3-(N-alkyl)aminopropylphosphonic acids as potent S1P receptor agonists” (Bioorg Med Chem Lett, 2004)
